Blank lines part the entries; values can stand above or below the compound they belong to. Active and inactive are the calls of the source.
Assays:
[1] = NIH-3T3 fibroblast cytotoxicity, dose response, cytotoxicity control, cell-based, fluorescence, Alamar Blue, secondary assay (AID 2327); format: functional;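 also: NIH-3T3 mouse fibroblasts cultured with fluconazole at 8 µg/mL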
[2] = C. albicans growth with fluconazole, confirmation, fluorescence, retest (AID 2467); format: functional, cell-based
Prothrombin = Prothrombin (Homo sapiens, UniProt P00734); assay: Thrombin 1536 HTS Dose Response Confirmation. [Related pubchem assays: 1046 (Thrombin 1536 HTS; hits were confirmed in this assay)]; format: functional
Leucine aminopeptidase = biological target: T1, Leucine aminopeptidase (Plasmodium falciparum 3D7, UniProt Q8IL11); assay: P. falciparum M17LAP inhibitors, primary screen, biochemical, fluorogenic H-Leu-NHMec substrate, 1536-well (AID 1619); format: functional
T1 sequence (Q8IL11 whole entry): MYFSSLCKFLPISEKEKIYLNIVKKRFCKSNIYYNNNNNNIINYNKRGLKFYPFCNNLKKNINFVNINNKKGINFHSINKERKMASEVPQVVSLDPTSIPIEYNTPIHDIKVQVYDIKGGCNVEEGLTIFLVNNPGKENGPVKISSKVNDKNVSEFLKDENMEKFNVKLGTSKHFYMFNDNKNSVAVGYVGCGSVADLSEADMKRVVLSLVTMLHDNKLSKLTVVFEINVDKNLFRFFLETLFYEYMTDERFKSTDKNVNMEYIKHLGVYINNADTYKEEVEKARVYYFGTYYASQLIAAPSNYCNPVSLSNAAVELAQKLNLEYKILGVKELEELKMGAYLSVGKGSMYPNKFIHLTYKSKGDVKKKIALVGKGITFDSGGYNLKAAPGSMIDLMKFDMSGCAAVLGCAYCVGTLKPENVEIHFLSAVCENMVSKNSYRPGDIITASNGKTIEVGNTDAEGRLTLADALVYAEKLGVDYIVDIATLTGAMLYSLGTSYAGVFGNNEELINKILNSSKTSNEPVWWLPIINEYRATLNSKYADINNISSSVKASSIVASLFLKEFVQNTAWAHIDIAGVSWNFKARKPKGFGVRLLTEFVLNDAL

[3] = biological target: T2, Polyadenylate-binding protein 1 (Homo sapiens, UniProt P11940); assay: PABP1 MLLE–PAM2 interaction inhibitors, dose response, miRNA deadenylation inhibitor project, biochemical, fluorescence polarization, Cy5-PAM2 peptide, secondary (AID 602260); format: functional; settings: read-out: IC50_Mean
[4] = biological target: T3, Zinc finger protein mex-5 (Caenorhabditis elegans, UniProt Q9XUB2); assay: MEX-5/TCR-2 RNA interaction inhibitors, dose response, biochemical, C. elegans, fluorescence polarization (AID 1960)
T3 sequence (Q9XUB2 whole entry): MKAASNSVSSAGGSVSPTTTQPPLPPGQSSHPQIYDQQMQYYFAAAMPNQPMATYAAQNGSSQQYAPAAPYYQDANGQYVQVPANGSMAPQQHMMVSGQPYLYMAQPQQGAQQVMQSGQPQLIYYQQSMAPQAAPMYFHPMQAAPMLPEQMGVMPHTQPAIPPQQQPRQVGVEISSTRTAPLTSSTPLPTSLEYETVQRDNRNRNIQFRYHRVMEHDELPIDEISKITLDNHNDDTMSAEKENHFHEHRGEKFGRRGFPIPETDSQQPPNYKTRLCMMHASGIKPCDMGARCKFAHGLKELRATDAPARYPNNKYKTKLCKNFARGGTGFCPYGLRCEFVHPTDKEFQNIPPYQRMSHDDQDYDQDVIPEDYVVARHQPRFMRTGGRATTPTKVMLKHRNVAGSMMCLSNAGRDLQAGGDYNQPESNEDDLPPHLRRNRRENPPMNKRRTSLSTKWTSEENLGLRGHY

[5] = biological target: T2, Polyadenylate-binding protein 1; assay: PABP1 MLLE–PAM2 binding inhibitor potency, dose response, biochemical, fluorescence polarization, FITC-PAM2 peptide (AID 602259); format: functional; settings: read-out: IC50_Mean
[6] = biological target: T4, RNA-binding protein pos-1 (Caenorhabditis elegans, UniProt G5EF15); assay: inhibitors of POS-1/mex-3 RNA binding, dose response, biochemical, fluorescence polarization (AID 1964);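 also: purified POS-1 fused to maltose binding protein made in E. coli; potency of compounds blocking POS-1 binding to fluorescent RNA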
T4 sequence (G5EF15 whole entry): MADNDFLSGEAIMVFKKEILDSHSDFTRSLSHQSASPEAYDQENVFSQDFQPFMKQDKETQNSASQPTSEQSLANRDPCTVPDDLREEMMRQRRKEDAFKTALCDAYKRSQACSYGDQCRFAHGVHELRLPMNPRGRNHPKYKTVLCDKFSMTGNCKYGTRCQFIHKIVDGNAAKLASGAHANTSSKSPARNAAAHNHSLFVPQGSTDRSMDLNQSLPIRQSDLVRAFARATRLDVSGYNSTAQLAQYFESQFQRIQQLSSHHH

[7] = intracellular Trypanosoma cruzi inhibitors in host cells – cell-based, plate reader, cherry-pick samples, set 3, dose response (AID 651818); format: functional;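 also: compounds incubated with infected cells for about four days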
[8] = biological target: Luciferin 4-monooxygenase (Photinus pyralis, UniProt P08659); assay: firefly luciferase enzyme inhibitors, dose response, biochemical, luminescence (AID 1891)
[9] = Luminescence Cell-Based Dose Confirmation HTS to Identify Inhibitors of Platelet Dense Granule Release. [Related pubchem assays: 1663 (Primary HTS), 1678 (Summary of Project)]; format: functional
Cytochrome P450 2C9 = Cytochrome P450 2C9 (Homo sapiens, UniProt P11712)
Cytochrome P450 3A4 = Cytochrome P450 3A4 (Homo sapiens, UniProt P08684);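 also: CYP3A4 tested as one member of a cytochrome P450 panel screen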
[10] = control 3'UTR Renilla luciferase suppression, dose response, counter-screen for Shn3 inhibitor project, cell-based, Clone20-Shn3RL, cherry-picked (AID 624133); format: functional
Paired box protein Pax-8 = Paired box protein Pax-8 (Homo sapiens, UniProt Q06710); assay: inhibitors of PAX8-driven TPO luciferase reporter, dose response, RMG-I cells, cherry-pick (AID 687027); format: functional, cell-based;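 also: luciferase reporter driven by Pax8 target thyroperoxidase promoter measured by SteadyGlo luminescence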
[11] = Shn3 3'UTR reporter inhibitors, dose response, cell-based, Clone20 osteoblasts, firefly luciferase, cherry-picked (AID 624132); format: functional;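 also: firefly luciferase luminescence from reporter carrying the Shn3 3'UTR in osteoblasts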
Cytochrome P450 1A2 = biological target: T5, Cytochrome P450 1A2 (Homo sapiens, UniProt P05177);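 also: PubChem cytochrome P450 panel assay, CYP1A2 panel member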
T5 sequence (P05177 whole entry): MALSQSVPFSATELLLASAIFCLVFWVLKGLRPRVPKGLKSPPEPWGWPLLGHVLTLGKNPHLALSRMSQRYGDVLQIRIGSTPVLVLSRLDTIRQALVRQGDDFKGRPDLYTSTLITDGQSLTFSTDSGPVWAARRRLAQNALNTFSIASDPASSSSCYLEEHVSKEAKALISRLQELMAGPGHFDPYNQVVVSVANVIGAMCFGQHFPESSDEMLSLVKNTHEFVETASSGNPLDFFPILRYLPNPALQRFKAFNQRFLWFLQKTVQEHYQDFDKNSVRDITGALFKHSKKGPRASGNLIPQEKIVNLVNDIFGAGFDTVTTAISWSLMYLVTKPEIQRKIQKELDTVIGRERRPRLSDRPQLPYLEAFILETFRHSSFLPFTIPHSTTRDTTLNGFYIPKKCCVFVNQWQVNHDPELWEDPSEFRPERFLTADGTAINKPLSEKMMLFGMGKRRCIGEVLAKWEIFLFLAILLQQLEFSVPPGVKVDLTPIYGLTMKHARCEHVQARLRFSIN

Cytochrome P450 2C19 = Cytochrome P450 2C19 (Homo sapiens, UniProt P33261); assay: Cytochrome panel assay with activity outcomes. Panel member name: p450-cyp2c19 Compounds with AC50 equal or less than 10 uM are considered active; format: functional; settings: read-out: AC50
Chain of Cytochrome P450 2C19 (P33261 whole entry): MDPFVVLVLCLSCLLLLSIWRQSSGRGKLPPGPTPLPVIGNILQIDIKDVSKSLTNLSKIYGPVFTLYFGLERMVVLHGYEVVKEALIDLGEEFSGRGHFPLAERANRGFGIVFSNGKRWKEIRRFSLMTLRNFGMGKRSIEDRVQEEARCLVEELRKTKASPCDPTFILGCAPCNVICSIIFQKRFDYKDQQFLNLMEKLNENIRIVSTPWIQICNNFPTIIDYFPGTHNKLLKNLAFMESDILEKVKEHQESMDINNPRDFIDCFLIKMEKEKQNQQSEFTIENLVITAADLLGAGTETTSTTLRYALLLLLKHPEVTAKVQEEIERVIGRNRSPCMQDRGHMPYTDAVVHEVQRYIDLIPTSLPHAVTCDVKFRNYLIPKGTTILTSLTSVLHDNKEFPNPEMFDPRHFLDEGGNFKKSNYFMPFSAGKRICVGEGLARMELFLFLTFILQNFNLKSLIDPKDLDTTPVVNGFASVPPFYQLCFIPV

Chain of Luciferin 4-monooxygenase (P08659 whole entry): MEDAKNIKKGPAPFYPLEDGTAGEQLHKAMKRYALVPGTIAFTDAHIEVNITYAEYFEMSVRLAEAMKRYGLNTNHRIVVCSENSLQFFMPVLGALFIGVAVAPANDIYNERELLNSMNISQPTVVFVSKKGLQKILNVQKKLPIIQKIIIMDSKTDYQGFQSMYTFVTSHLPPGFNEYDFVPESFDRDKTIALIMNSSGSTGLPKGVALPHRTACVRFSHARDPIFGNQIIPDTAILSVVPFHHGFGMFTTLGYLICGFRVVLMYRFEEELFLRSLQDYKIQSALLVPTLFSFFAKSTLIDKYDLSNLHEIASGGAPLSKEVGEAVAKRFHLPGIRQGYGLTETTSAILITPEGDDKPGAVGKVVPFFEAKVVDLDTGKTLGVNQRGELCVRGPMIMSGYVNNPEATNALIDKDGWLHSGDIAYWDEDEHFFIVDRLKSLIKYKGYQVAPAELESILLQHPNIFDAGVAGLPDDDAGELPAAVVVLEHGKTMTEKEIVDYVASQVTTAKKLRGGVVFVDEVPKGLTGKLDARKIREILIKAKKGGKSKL
T2 sequence (P11940 whole entry): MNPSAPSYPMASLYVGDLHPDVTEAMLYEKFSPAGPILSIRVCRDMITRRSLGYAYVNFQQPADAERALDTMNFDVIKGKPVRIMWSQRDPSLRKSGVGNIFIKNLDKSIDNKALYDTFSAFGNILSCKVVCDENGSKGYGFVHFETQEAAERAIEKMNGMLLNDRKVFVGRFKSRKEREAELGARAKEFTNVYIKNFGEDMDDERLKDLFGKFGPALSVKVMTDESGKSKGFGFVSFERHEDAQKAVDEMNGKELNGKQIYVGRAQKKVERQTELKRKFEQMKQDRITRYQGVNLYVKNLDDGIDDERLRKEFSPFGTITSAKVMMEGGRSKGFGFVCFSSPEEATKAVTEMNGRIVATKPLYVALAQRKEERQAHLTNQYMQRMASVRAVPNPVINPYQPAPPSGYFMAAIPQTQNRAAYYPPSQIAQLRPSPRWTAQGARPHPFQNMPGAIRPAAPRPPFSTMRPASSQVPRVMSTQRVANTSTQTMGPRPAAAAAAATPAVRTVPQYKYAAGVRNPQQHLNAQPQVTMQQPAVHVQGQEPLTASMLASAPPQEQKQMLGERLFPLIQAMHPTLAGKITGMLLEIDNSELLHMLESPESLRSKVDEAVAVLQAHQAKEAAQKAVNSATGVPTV
Chain of Paired box protein Pax-8 (Q06710 whole entry): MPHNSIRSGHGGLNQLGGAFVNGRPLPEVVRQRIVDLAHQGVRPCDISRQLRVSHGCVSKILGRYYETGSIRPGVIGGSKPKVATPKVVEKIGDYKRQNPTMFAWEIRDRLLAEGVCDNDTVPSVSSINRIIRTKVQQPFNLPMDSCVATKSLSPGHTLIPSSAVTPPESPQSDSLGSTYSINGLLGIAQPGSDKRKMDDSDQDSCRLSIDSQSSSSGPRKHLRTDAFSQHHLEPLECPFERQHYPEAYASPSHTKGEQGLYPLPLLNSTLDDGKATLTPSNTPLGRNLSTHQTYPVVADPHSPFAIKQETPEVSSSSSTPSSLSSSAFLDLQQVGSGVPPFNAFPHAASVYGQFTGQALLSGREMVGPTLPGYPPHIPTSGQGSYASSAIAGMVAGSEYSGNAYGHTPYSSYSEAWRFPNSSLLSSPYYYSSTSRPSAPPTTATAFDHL
Chain of Cytochrome P450 2C9 (P11712 whole entry): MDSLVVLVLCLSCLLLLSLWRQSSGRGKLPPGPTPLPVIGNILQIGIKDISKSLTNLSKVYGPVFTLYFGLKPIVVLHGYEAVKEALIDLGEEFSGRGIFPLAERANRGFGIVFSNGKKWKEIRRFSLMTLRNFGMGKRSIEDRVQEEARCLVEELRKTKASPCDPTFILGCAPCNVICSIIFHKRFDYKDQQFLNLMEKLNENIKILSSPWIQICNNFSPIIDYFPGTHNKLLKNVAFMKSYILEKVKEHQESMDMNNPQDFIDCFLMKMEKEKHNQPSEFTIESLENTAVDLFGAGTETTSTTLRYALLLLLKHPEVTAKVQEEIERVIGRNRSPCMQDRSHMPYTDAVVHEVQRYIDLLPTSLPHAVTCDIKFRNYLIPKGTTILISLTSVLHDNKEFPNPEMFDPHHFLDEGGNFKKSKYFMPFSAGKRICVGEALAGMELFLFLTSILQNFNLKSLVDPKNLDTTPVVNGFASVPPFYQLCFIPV
Chain of Cytochrome P450 3A4 (P08684 whole entry): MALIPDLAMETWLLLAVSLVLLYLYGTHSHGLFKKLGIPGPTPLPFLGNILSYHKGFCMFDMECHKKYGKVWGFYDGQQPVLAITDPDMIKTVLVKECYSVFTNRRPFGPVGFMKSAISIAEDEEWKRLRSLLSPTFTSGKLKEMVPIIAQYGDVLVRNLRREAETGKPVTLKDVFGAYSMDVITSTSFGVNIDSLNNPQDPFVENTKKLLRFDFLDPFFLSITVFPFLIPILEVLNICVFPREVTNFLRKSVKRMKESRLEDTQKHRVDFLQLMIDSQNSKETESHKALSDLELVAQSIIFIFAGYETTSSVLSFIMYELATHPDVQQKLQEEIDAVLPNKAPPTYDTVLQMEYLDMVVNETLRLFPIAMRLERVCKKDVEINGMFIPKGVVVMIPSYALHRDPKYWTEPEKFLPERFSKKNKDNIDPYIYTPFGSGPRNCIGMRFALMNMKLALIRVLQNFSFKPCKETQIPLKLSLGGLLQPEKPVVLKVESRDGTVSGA

Compound: Nc1nnnn1/N=C/c1cccc(Oc2ccccc2)c1
EC50 [1]: > 150 µM (inactive)
EC50 [2]: > 38 µM (not active)

IC50 (Prothrombin): 0.167 µM (active)
Compound: COc1ccc(CNc2nc(-c3cccnc3)nn2C(=O)C(C)C)cc1

Compound: CC1COC(=O)C(NNc2ccc(Cl)c(Cl)c2)=N1 (centres undefined)
EC50 [1]: > 160 µM (inactive)
EC50 [2]: 2.17 µM (active)

IC50 (Prothrombin): > 50 µM (not active)
Compound: CC(C)c1ccc(N(CC(=O)N/N=C/c2ccc(OC3CSC3)cc2)S(=O)(=O)c2ccccc2)cc1

IC50 (Leucine aminopeptidase): 14.3 µM (active)
Compound: O=C(O)C1CCCCC1C(=O)Nc1ccc(Cl)cc1Cl (centres undefined)

IC50 [3]: > 66 µM (inactive)
EC50 [4]: 22.4 µM (active)
IC50 [5]: > 66 µM (inactive)
EC50 [6]: 25.3 µM (active)
Compound: c1ccc(C2=NNC(c3ccccn3)=NN2)nc1

IC50 [3]: > 66 µM (inactive)
EC50 [4]: 38.5 µM (active)
IC50 [5]: 43.9 µM (inactive)
EC50 [6]: 42.4 µM (active)
Compound: Cc1ccc[n+](-c2[nH]c(=O)sc2C=NNC(=O)c2ccccc2[O-])c1

Compound: C[C@H]1CN([C@@H](C)CO)C(=O)Cc2cc(NC(=O)Nc3ccc(C(F)(F)F)cc3)ccc2O[C@@H]1CN(C)Cc1ccc(-c2ccccc2)cc1
AC50 [7]: 3.1 µM (active)

Compound: CCCOc1ccc(CNC(=O)c2ccc3c(c2)N(CC)CCS3)cc1
EC50 [8]: > 112 µM (not active)
EC50 [9]: > 112 µM (not active)

AC50 (Cytochrome P450 2C9): 25.1 µM (inconclusive)
IC50 (Prothrombin): 0.586 µM (active)
AC50 (Cytochrome P450 3A4): 5.62 µM (inconclusive)
Compound: CCOC(=O)CSc1n[nH]c(NC(=O)c2cccc(C)c2)n1

Compound: C[C@H](CO)N1C[C@H](C)[C@@H](CN(C)Cc2ccc(C(=O)Nc3ccccc3N)cc2)Oc2c(NC(=O)c3ccc(-c4nccs4)cc3)cccc2C1=O
AC50 [7]: 2.85 µM (active)

Compound: Cc1ccc(S(=O)(=O)N(C)C[C@@H]2Oc3c(NC(=O)Nc4ccc(C(F)(F)F)cc4)cccc3C(=O)N([C@H](C)CO)C[C@@H]2C)cc1
AC50 [7]: 5.16 µM (active)

Compound: CCCCCCC#Cc1ccc2c(c1)COc1c3ccccc3nn1-2
AC50 [10]: 7.68 µM (active)

Compound: C[C@H]1CN([C@@H](C)CO)C(=O)c2cccc(NC(=O)c3cnccn3)c2O[C@@H]1CN(C)Cc1ccc(C(=O)Nc2ccccc2N)cc1
AC50 [7]: 2.99 µM (active)

Compound: CCOC(=O)C1CCN(/C=N/c2cc(C)on2)CC1
EC50 [8]: > 112 µM (not active)
EC50 [9]: > 112 µM (not active)

IC50 (Leucine aminopeptidase): 7.74 µM (active)
Compound: Cc1cccc(NC(=O)CN2NS(=O)(=O)c3ccccc3C2=O)c1

IC50 (Leucine aminopeptidase): 37.8 µM (active)
Compound: Cc1ccc(NC(=O)CN2C(=O)N/C(=C/c3ccco3)C2=O)cc1

Compound: CC[C@@H]1C=CC=CC[C@H](C)[C@@H](O)[C@@H](C)C(=O)[C@H](C)[C@@H](O)[C@H](C)C(=O)[C@H](C)[C@@H](O)[C@H](C)C=CC(=O)O[C@H]2[C@@H](C)[C@@H](CC1)O[C@@]1(CC[C@@H](C)[C@@H](C[C@H](C)O)O1)[C@@H]2C [OLIGOMYCIN C]
EC50 [1]: 15.6 µM (active)
EC50 [2]: 0.427 µM (active)

Compound: CCC(C)(O)C(=O)OC1C(=O)OC2CC3C(C)=CC(=O)C(O)C3(C)C3C4(O)OCC23C1C(C)C4O (centres undefined)
AC50 [10]: 5.79 µM (active)
AC50 (Paired box protein Pax-8): 0.426 µM (active)
AC50 [11]: 0.866 µM (active)

Compound: Cc1nn(-c2ccccc2)c(Cl)c1/C=N/NC(=O)c1[nH]ncc1Br
EC50 [8]: 0.374 µM (active)
EC50 [9]: 3.52 µM (active)

Compound: C[C@H]1CN([C@@H](C)CO)C(=O)c2cccc(NC(=O)C3CCCCC3)c2O[C@@H]1CN(C)Cc1ccc(Oc2ccccc2)cc1
AC50 [7]: 4.77 µM (active)

Compound: C[C@@H]1CN([C@@H](C)CO)C(=O)Cc2cc(NC(=O)Nc3ccc4c(c3)OCO4)ccc2O[C@@H]1CN(C)Cc1ccc(-c2ccccc2)cc1
AC50 [7]: 4.26 µM (active)

Compound: C[C@H]1CN([C@@H](C)CO)C(=O)c2cccc(NS(=O)(=O)c3ccc(F)cc3)c2O[C@H]1CN(C)Cc1ccc(C(=O)Nc2ccccc2N)cc1
AC50 [7]: 3.43 µM (active)

Compound: Cc1cc(S(=O)(=O)N2CCCCC2)ccc1OCC(=O)Nc1ccccc1
EC50 [8]: > 112 µM (not active)
EC50 [9]: 19.7 µM (active)

IC50 (Prothrombin): 8.75 µM (active)
Compound: COc1ccc(CC(=O)n2nc(-c3ccccc3)nc2NCc2ccco2)cc1

Compound: O=C(c1ccc(Cl)cc1)C1CCCN(Cc2ccc(Oc3ncccn3)cc2)C1 (centres undefined)
EC50 [8]: > 112 µM (not active)
EC50 [9]: > 112 µM (not active)

IC50 (Prothrombin): > 50 µM (not active)
Compound: CCN(CC)S(=O)(=O)c1cccc(NC(=O)/C=C/c2cccc([N+](=O)[O-])c2)c1

IC50 (Leucine aminopeptidase): 16.2 µM (active)
Compound: COc1ccc(NC(=O)CSc2[nH]c(=O)cc(C)c2C#N)cc1OC

Compound: COc1ccc(S(=O)(=O)N(C)CC(=O)Nc2ccc3c(c2)OCO3)cc1OC
EC50 [8]: > 112 µM (not active)
EC50 [9]: > 112 µM (not active)

Compound: C[C@@H]1CN([C@H](C)CO)C(=O)Cc2cc(NC(=O)Nc3ccc(F)cc3)ccc2O[C@H]1CN(C)Cc1ccc(Cl)c(Cl)c1
AC50 [7]: 4.44 µM (active)
AC50 (Paired box protein Pax-8): 16.2 µM (active)

IC50 (Prothrombin): 1.02 µM (active)
Compound: Cc1ccc(C(=O)n2ncn(C)c2=S)cc1

Compound: O=C(NNC(=S)NC(=O)c1ccccc1[N+](=O)[O-])c1ccc(Cl)cc1Cl
EC50 [1]: > 150 µM (inconclusive)
EC50 [2]: 4.09 µM (active)

AC50 (Cytochrome P450 1A2): 2.51 µM (inconclusive)
AC50 (Cytochrome P450 2C9): 10 µM (inconclusive)
AC50 (Cytochrome P450 2C19): 0.1 µM (inconclusive)
IC50 (Prothrombin): 0.896 µM (active)
Compound: CSc1nc(-c2ccccc2)nn1C(=O)c1ccccc1

Compound: C[C@@H](CO)NC(=O)c1ccc2c3n(nc2c1)-c1ccccc1CO3
EC50 [8]: 16.4 µM (active)
EC50 [9]: 6.93 µM (active)

IC50 (Prothrombin): > 50 µM (not active)
Compound: C#CCNc1cc(C)nc2ncnn12

IC50 (Leucine aminopeptidase): 5.51 µM (active)
Compound: Nc1n[nH]c(N)c1N=Nc1cccc(F)c1

IC50 (Prothrombin): > 50 µM (not active)
Compound: CC(C)c1nnc(NC(=O)c2cnccn2)s1

Compound: CCn1c(O)nnc1Sc1nc(C)nc2scc(-c3cccs3)c12
EC50 [1]: > 160 µM (inactive)
EC50 [2]: 0.163 µM (active)

Source: ChEMBL document CHEMBL1201862, “PubChem BioAssay data set” (2004)
